Laboratory results published in US8557738B2, “Nitrogen-containing heterocyclic derivative and fungicide for agricultural and horticultural use” (Nippon Soda Co., Ltd., priority 2008, dated 2013).

Tested on: not given
Assay: not given
Details: not given

Compound	melting point [°C]
CC1(C)CN=C(c2cnc3c(F)cccc3c2)c2cccc(Cl)c2O1 [B1-39, 9-Chloro-5-(8-fluoro-quinolin-3-yl)-2,2-dimethyl-2,3-dihydro-benzo[f][1,4]oxazepine]	190 to 191
CC1(C)CN=C(c2cnc3c(F)cccc3c2)c2cccc(F)c2O1.O=C(O)C(F)(F)F	174 to 176
Fc1cccc2c1C(c1cnc3ccccc3c1)=NCCO2	126 to 128
CC1(C)CN=C(c2cnc3c(Cl)cccc3c2)c2cccc(Cl)c2O1 [B1-41, 2,2-Dimethyl-9-chloro-5-(8-chloro-quinolin-3-yl)-2,3-dihydro-benzo[f][1,4]oxazepine]	214 to 217
CC1(C)CN=C(c2cnc3c(F)cccc3c2)c2cccc(F)c2O1.Cl	164 to 166
CC1(Cl)CN=C(c2cnc3ccccc3c2)c2cccc(F)c2O1 (centres unmarked) [B1-30, 2-Chloro-9-fluoro-2-methyl-5-(3-quinolinyl)-2,3-dihydro-benzo[f][1,4]oxazepine]	123 to 125
Cc1cc(C2=NCCOc3c(Cl)cccc32)cnc1C	142 to 143
Cc1cccc2cc(C3=NCC(C)(C)Oc4c(Cl)cccc43)cnc12 [B1-40, 9-Chloro-2,2-dimethyl-5-(8-methylquinolin-3-yl)-2,3-dihydro-benzo[f][1,4]oxazepine]	145 to 147
CC1(C)N=C(c2cnc3ccccc3c2)c2cccc(F)c2OC1(C)C [B1-43, 9-Fluoro-5-(3-quinolinyl)-2,2,3,3-tetramethyl-2,3-dihydro-benzo[f][1,4]oxazepine]	132 to 133
CC1N=C(c2cnc3ccccc3c2)c2ccccc2OC1(C)C (centres unmarked) [B1-42, 5-(3-Quinolinyl)-2,2,3-trimethyl-2,3-dihydro-benzo[f][1,4]oxazepine]	139 to 142
CC1(C)CN=C(c2cnc3ccccc3c2)c2cccc(Cl)c2O1.Cl	149 to 151
CC1(C)CN=C(c2cnc3c(F)cccc3c2)c2cccc(F)c2O1 [B1-38, 2,2-Dimethyl-9-fluoro-5-(8-fluoro-quinolin-3-yl)-2,3-dihydro-benzo[f][1,4]oxazepine]	171 to 173
CC1(C)CN=C(c2cnc3c(F)cccc3c2)c2ccccc2O1 [B1-37, 5-(8-Fluoro-quinolin-3-yl)-2,2-dimethyl-2,3-dihydro-benzo[f][1,4]oxazepine]	165 to 167
c1ccc2c(c1)OCCN=C2c1cnc2ccccc2c1 [B1-1, 5-(3-Quinolinyl)-2,3-dihydro-benzo[f][1,4]oxazepine]	115 to 117
CC1(C)CN=C(c2cnc3ccccc3c2)c2cccc(Cl)c2O1.O=C(O)C(F)(F)F	129 to 131

Now from value to compound:

melting point [°C]	Compound
140 to 142	CCC1(C)CN=C(c2cnc3c(F)cccc3c2)c2cccc(F)c2O1 (centres unmarked) [B1-49, 2-Ethyl-9-fluoro-5-(8-fluoro-quinolin-3-yl)-2-methyl-2,3-dihydro-benzo[f][1,4]oxazepine]
144 to 146	CCC1(C)CN=C(c2cnc3c(F)cccc3c2)c2cccc(Cl)c2O1 (centres unmarked) [B1-48, 9-Chloro-2-ethyl-5-(8-fluoro-quinolin-3-yl)-2-methyl-2,3-dihydro-benzo[f][1,4]oxazepine]
93 to 95	CCC1(C)CN=C(c2cnc3c(F)cccc3c2)c2ccccc2O1 (centres unmarked) [B1-47, 2-Ethyl-5-(8-fluoro-quinolin-3-yl)-2-methyl-2,3-dihydro-benzo[f][1,4]oxazepine]
166 to 168	Cc1ccc2ncc(C3=NCC(C)(C)Oc4c(Cl)cccc43)cc2c1 [B1-60, 9-Chloro-2,2-dimethyl-5-(6-methylquinolin-3-yl)-2,3-dihydro-benzo[f][1,4]oxazepine]
131 to 133	CC1(C)CN(C=O)C(c2cnc3c(F)cccc3c2)c2cccc(F)c2O1 (centres unmarked) [B4-51, 9-Fluoro-5-(8-fluoro-quinolin-3-yl)-2,2-dimethyl-2,3-dihydro-5H-benzo[f][1,4]oxazepine-4-carbaldehyde]
130 to 131	CC1(C)CNC(c2cnc3c(F)cccc3c2)c2cccc(F)c2O1 (centres unmarked) [B4-47, 9-Fluoro-5-(8-fluoro-quinolin-3-yl)-2,2-dimethyl-2,3,4,5-tetrahydro-benzo[f][1,4]oxazepine]
153 to 155	COc1cccc2c1OC(C)(C)CN=C2c1cnc2ccccc2c1 [B1-55, 9-Methoxy-2,2-dimethyl-5-quinolin-3-yl-2,3-dihydro-benzo[f][1,4]oxazepine]
181 to 183	CC1(C)CN=C(c2cnc3c(F)cccc3c2)c2ccccc2S1 [B2-13, 2,2-Dimethyl-5-(8-fluoro-quinolin-3-yl)-2,3-dihydro-benzo[f][1,4]thiazepine]
144 to 145	CC1(C)N=C(c2cnc3c(F)cccc3c2)c2cccc(F)c2OC1(C)C [B1-45, 9-Fluoro-5-(8-fluoro-quinolin-3-yl)-2,2,3,3-tetramethyl-2,3-dihydro-benzo[f][1,4]oxazepine]
133 to 134	CC1(C)CNC(c2cnc3c(F)cccc3c2)c2cccc(Cl)c2O1 (centres unmarked) [B4-49, 9-Chloro-5-(8-fluoro-quinolin-3-yl)-2,2-dimethyl-2,3,4,5-tetrahydro-benzo[f][1,4]oxazepine]
119 to 122	CC1(C)CN=C(c2cnc3ccccc3c2)c2cccc(F)c2S1 [B2-14, 4-Fluoro-6,6-dimethyl-9-quinolin-3-yl-6,7-dihydro-5-thia-8-aza-benzocycloheptene]
179 to 181	CC1(C)CN=C(c2cnc3c(F)cccc3c2)c2cccc(F)c2S1 [B2-15, 4-Fluoro-9-(8-fluoro-quinolin-3-yl)-6,6-dimethyl-6,7-dihydro-5-thia-8-aza-benzocycloheptene]
157 to 159	CC1(C)CN=C(c2cnc3cccc(Cl)c3c2)c2cccc(Cl)c2O1 [B1-57, 9-Chloro-5-(5-chloro-quinolin-3-yl)-2,2-dimethyl-2,3-dihydro-benzo[f][1,4]oxazepine]
182 to 184	c1ccc2c(c1)N=C(c1cnc3ccccc3c1)c1ccccc1O2 [B1-83, 11-Quinolin-3-yl-dibenzo[b,f][1,4]oxazepine]
160 to 162	Cc1cccc2ncc(C3=NCC(C)(C)Oc4c(Cl)cccc43)cc12 [B1-58, 9-Chloro-2,2-dimethyl-5-(5-methyl-quinolin-3-yl)-2,3-dihydro-benzo[f][1,4]oxazepine]
155 to 157	CC1(C)CN=C(c2cnc3c(Cl)cccc3c2)c2ccccc2O1 [B1-46, 5-(8-Chloro-quinolin-3-yl)-2,2-dimethyl-2,3-dihydro-benzo[f][1,4]oxazepine]
196 to 197	CC1(c2ccccc2)CN=C(c2cnc3ccccc3c2)c2ccccc2O1 (centres unmarked) [B1-52, 2-Methyl-2-phenyl-5-quinolin-3-yl-2,3-dihydro-benzo[f][1,4]oxazepine]
133 to 135	CC1(C)COc2cc(F)ccc2C(c2cnc3ccccc3c2)=N1 [B1-85, 8-Fluoro-3,3-dimethyl-5-quinolin-3-yl-2,3-dihydro-benzo[f][1,4]oxazepine]
118 to 120	CC1(C)CN=C(c2cnc3ccccc3c2)c2ccccc2[S+]1[O-] (centres unmarked) [B2-16, 6,6-Dimethyl-9-quinolin-3-yl-6,7-dihydro-5-thia-8-aza-benzocycloheptene 5-oxide]
103 to 105	CC1(C(F)(F)F)CN=C(c2cnc3c(F)cccc3c2)c2ccccc2O1 (centres unmarked) [B1-56, 5-(8-Fluoro-quinolin-3-yl)-2-methyl-2-trifluoromethyl-2,3-dihydro-benzo[f][1,4]oxazepine]
132 to 134	CC(=O)N1CC(C)(C)Oc2c(F)cccc2C1c1cnc2c(F)cccc2c1 (centres unmarked) [B4-52, 1-[9-Fluoro-5-(8-fluoro-quinolin-3-yl)-2,2-dimethyl-2,3-dihydro-5H-benzo[f][1,4]oxazepin-4-yl]-ethanone]
117 to 118	CCN1CC(C)(C)Oc2c(F)cccc2C1c1cnc2c(F)cccc2c1 (centres unmarked) [B4-48, 4-Ethyl-9-fluoro-5-(8-fluoro-quinolin-3-yl)-2,2-dimethyl-2,3,4,5-tetrahydro-benzo[f][1,4]oxazepine]
225 to 227	O=C1COc2ccccc2C(c2cnc3ccccc3c2)N1 (centres unmarked) [B4-46, 5-Quinolin-3-yl-4,5-dihydro-benzo[f][1,4]oxazepin-3-one]
225 to 227	CC1(C)Oc2ccccc2C(c2cnc3ccccc3c2)NC1=O (centres unmarked) [B4-53, 2,2-Dimethyl-5-quinolin-3-yl-4,5-dihydro-benzo[f][1,4]oxazepin-3-one]

Tested on: apple scab pathogen (Venturia inaequalis)
Assay: Apple scab control test
Type: in vivo
Details: 336 h, emulsion sprayed at 100 ppm active ingredient onto apple seedlings (Ralls Janet), lesions on leaves after 2 weeks vs untreated, read-out: control value

Compound	pest or weed control at 100 ppm [%]
CC1(C(F)(F)F)CN=C(c2cnc3ccccc3c2)c2ccccc2O1 (centres unmarked) [B1-51, 2-Methyl-5-quinolin-3-yl-2-trifluoromethyl-2,3-dihydro-benzo[f][1,4]oxazepine]	≥ 75
CC1(C)CN=C(c2cnc3ccccc3c2)c2cccc(C#N)c2O1 [B1-54, 2,2-Dimethyl-5-quinolin-3-yl-2,3-dihydro-benzo[f][1,4]oxazepine-9-carbonitrile]	≥ 75
CC1(C(F)(F)F)CN=C(c2cnc3c(F)cccc3c2)c2ccccc2O1 (centres unmarked) [B1-56, 5-(8-Fluoro-quinolin-3-yl)-2-methyl-2-trifluoromethyl-2,3-dihydro-benzo[f][1,4]oxazepine]	≥ 75
c1ccc2c(c1)OCCN=C2c1cnc2ccccc2c1 [B1-1, 5-(3-Quinolinyl)-2,3-dihydro-benzo[f][1,4]oxazepine]	≥ 75
CC1(C)CN=C(c2cnc3sccc3c2)c2cccc(Cl)c2O1 [A1-20, 9-Chloro-2,2-dimethyl-5-(thieno[2,3-b]pyridin-5-yl)-2,3-dihydro-benzo[f][1,4]oxazepine]	≥ 75
CC1(Cc2ccc(F)cc2)CN=C(c2cnc3ccccc3c2)c2ccccc2O1 (centres unmarked) [B1-53, 2-(4-Fluorobenzyl)-2-methyl-5-quinolin-3-yl-2,3-dihydro-benzo[f][1,4]oxazepine]	≥ 75

Tested on: cucumber gray mold pathogen (Botrytis cinerea)
Assay: Cucumber gray mold control test
Type: in vivo
Details: 96 h, emulsion sprayed at 100 ppm active ingredient onto cucumber seedlings (Sagami Hanjiro), lesions on leaves after 4 days vs untreated, read-out: control value

Compound	pest or weed control at 100 ppm [%]
CC1(C)CN=C(c2cnc3ccccc3c2)c2cc(Cl)ccc2O1 [B1-77, 7-Chloro-2,2-dimethyl-5-quinolin-3-yl-2,3-dihydro-benzo[f][1,4]oxazepine]	≥ 75
CC1(C)CN=C(c2cnc3ccccc3c2)c2cccc(Cc3ccccc3)c2O1 [B1-74, 9-Benzyl-2,2-dimethyl-5-quinolin-3-yl-2,3-dihydro-benzo[f][1,4]oxazepine]	≥ 75
